Measured values from patent US20060246492A1, “Method for predicting responsiveness to drugs” (The General Hospital Corporation, priority 2005, published 2006).
Entries after “also recorded” stand apart in the source; their conditions may differ.

How the values were obtained:
[1] = tested on: MET autophosphorylation (Y1234/1235) in Amp+ cells; assay: Immunoblotting of MET autophosphorylation; format: cell-based, human; conditions: 3 h, 50 nM
[2] = tested on: platelet-derived growth factor receptor; conditions: cited from earlier work
Amp+ cells [3] = assay: Viability of gastric cancer cell lines with MET amplification (MTT); format: cell-based, human; conditions: 5 of 5 Amp+ gastric cancer cell lines; 96 h
MKN45 [4] = assay: Drug-sensitivity screen of 40 human cancer cell lines (DNA staining, 3 days); format: cell-based; conditions: MKN45 gastric cancer cell line
Description: (§1) Cells were cultured and analyzed in triplicate within microtiter plates. Cell numbers were quantitated by DNA staining, 3 days after addition of various concentrations of drugs and expressed as a fraction of matched untreated cultures. For each drug concentration, cell lines with relative drug sensitivity (<50% of untreated control growth) are shown in darkest staining, intermediate sensitivity (50-75%) in […], and drug insensitivity (>75%) in intermediate shading.
(§2) Cellular Proliferation and Viability Assays. […] For quantitation of cellular proliferation, cells were fixed at appropriate time points in 4% paraformaldehyde, and all plates were stained simultaneously by using the fluorescent nucleic acid stain SYTO60 (Molecular Probes) at 1:8,000 dilution in PBS. Quantitation was done by measuring the […] at 700 nm by using the Odyssey Imaging System (LI-COR, Lincoln, Nebr.). The relative cell number was obtained by normalizing treated samples to matched untreated specimens. For quantitation of cell viability, cultures were stained after 4 days by using the MTT assay. Briefly, 10 μl of 5 mg/ml MTT (Thiazolyl blue) solution was added to each well and incubated for 2 h at 37° C. For adherent cell lines, the media was removed from each well, and the resultant MTT formazan was solubilized in 100 μl of DMSO. For nonadherent cell lines, the MTT formazan was solubilized by direct addition of 100 μl of acidic isopropanol (0.1 N HCl) to each well. The results were quantitated spectrophotometrically by using a test wavelength of 570 nm and a reference wavelength of 630 nm.

Amp+ cells [5] = assay: Growth curve (SYTO60 staining); format: cell-based, human; conditions: 1 μM, up to 6 days
Amp+ cells [6] = assay: Apoptosis induction assay (cleaved caspase-3, PARP cleavage); format: cell-based, human; conditions: 72 h, 1 μM (caspase-3), 500 nM (PARP)
Description: (§3) Cells are costained with DAPI to show nuclei.
(§4) Cells were plated on coverslips in 12-well dishes and grown to approximately 75% confluency in 10% serum. […] After 72 h the cells were fixed with 4% paraformaldehyde for 20 minutes. Permeabilization with 1% NP40 for 5 minutes was followed by blocking with 3% BSA for 30 minutes. The coverslips were then incubated overnight at 4° C. with cleaved caspase-3 antibody at 1:200 dilution. The next day, the coverslips were washed 3 times with PBS and incubated with a secondary antibody (goat anti-rabbit FITC-conjugated) for 1 h at 1:250 dilution. Following 5 washes with PBS, coverslips were mounted in Vectashield mounting medium containing DAPI (Vector Laboratories; Burlingame, Calif.).
(§5) Apoptosis Induction Assay. […] After 72 h, cells were fixed with 4% paraformaldehyde for 20 min, permeabilized by using 1% Nonidet P-40 for 5 min, and blocked with 3% BSA for 30 min. The coverslips were then incubated overnight at 4° C. with cleaved caspase-3 antibody at 1:200 dilution. The next day, the coverslips were washed three times with PBS and incubated with a secondary antibody (goat anti-rabbit FITC-conjugated) for 1 h at 1:250 dilution. After five washes with PBS, coverslips were mounted in Vectashield mounting medium containing DAPI (Vector Laboratories), and staining was visualized by fluorescent microscopy.

Amp− cells [7] = assay: as above; format: cell-based, human; conditions: 72 h, identical conditions
Description: as §3, §4, §5

SNU-16 = assay: MTT viability assay, gastric cancer cell line; format: cell-based; conditions: Homo sapiens, SNU-16, 96 h
Description: (§6) Cells were plated in 96-well plate in medium containing 4% fetal bovine serum at approximately 4000 cells/well. […] Cell viability was measured 96 h later using the MTT assay. Briefly, 10 ul of 5 mg/ml MTT (Thiazolyl blue) solution was added to each well and incubated for about 2 hours at 37° C. For adherent cell lines, the media was removed from each well and the resultant MTT formazan was solubilized in 100 ul of DMSO. For suspension cell lines, the MMT formazan was solubilized by direct addition of 100 ul of acidic isopropanol (0.1N HCl) to each well. The results were quantitated spectrophotometrically using a test wavelength of 570 nm and a reference wavelength of 630 nm.
as §2

SNU-5 = assay: MTT viability assay, gastric cancer cell line; format: cell-based; conditions: Homo sapiens, SNU-5, 96 h
Description: as §6, §2

N87 = assay: MTT viability assay, gastric cancer cell line; format: cell-based; conditions: Homo sapiens, 96 h
Description: as §6, §2

AGS = assay: MTT viability assay, gastric cancer cell line; format: cell-based; conditions: Homo sapiens, 96 h
Description: as §6, §2

MKN45 [8] = assay: MTT viability assay, gastric cancer cell line; format: cell-based; conditions: Homo sapiens, MKN-45, 96 h
Description: as §6, §2

GTL16 = assay: MTT viability assay, gastric cancer cell line; format: cell-based; conditions: Homo sapiens, GTL 16, 96 h
Description: as §6, §2

KATO II = assay: MTT viability assay, gastric cancer cell line; format: cell-based; conditions: Homo sapiens, 96 h
Description: as §6, §2

Hs746T = assay: MTT viability assay, gastric cancer cell line; format: cell-based; conditions: Homo sapiens, 96 h
Description: as §6, §2

KATO III = assay: MTT viability assay, gastric cancer cell line; format: cell-based; conditions: Homo sapiens, 96 h
Description: as §6, §2

HSC39 = assay: MTT viability assay, gastric cancer cell line; format: cell-based; conditions: Homo sapiens, 96 h
Description: as §6, §2

TMK-1 = assay: MTT viability assay, gastric cancer cell line; format: cell-based; conditions: Homo sapiens, TMK-1, 96 h
Description: as §6, §2

SNU-1 = assay: MTT viability assay, gastric cancer cell line; format: cell-based; conditions: Homo sapiens, SNU1, 96 h
Description: as §6, §2

MKN1 = assay: MTT viability assay, gastric cancer cell line; format: cell-based; conditions: Homo sapiens, MKN-1, 96 h
Description: as §6, §2

MKN28 = assay: MTT viability assay, gastric cancer cell line; format: cell-based; conditions: Homo sapiens, MKN-28, 96 h
Description: as §6, §2

MKN74 = assay: MTT viability assay, gastric cancer cell line; format: cell-based; conditions: Homo sapiens, MKN-74, 96 h
Description: as §6, §2

Hs738T = assay: MTT viability assay, gastric cancer cell line; format: cell-based; conditions: Homo sapiens, 96 h
Description: as §6, §2

MKN7 = assay: MTT viability assay, gastric cancer cell line; format: cell-based; conditions: Homo sapiens, MKN-7, 96 h
Description: as §6, §2

Amp− cells [9] = assay: Growth curve (SYTO60 staining); format: cell-based, human; conditions: 1 μM, up to 6 days
Amp− cells [10] = assay: Viability of gastric cancer cell lines without MET amplification (MTT); format: cell-based, human; conditions: 12 of 12 Amp− gastric cancer cell lines; 96 h
[11] = tested on: ERK1/2, AKT, STAT3, or FAK in Amp− cells; assay: Immunoblotting of downstream effector phosphorylation; format: cell-based, human; conditions: 3 h
Description: (§7) FIG. 3: Constitutive activation of MET and activation of downstream signaling pathways in Amp^+ cells. (FIG. 3A) MET is constitutively activated in the Amp^+ cells. […] (FIG. 3B) Effect of HGF on MET activation in Amp^+ and Amp^− cells (representative immunoblots). Cells were serum-starved for 24 h and treated with 40 ng/ml HGF for 10 minutes. Phosphorylation of MET (Y1234/1235) is unaltered in Amp^+ cells treated with HGF, but it is induced by HGF in Amp^− cells (total MET control).
as §3
(§8) Cells were either directly lysated in 2× sample buffer or in RIPA buffer (150 mM NaCl, 50 mM Tris pH 8.0, 1% NP40, 0.5% DOC, 0.1% SDS, 1 mM EDTA, 10 mM NaF, 1 mM Na-orthovanadate, 1× protease inhibitor cocktail (Roche; Indianapolis, Ind.)). Cell lysates were sonicated for 10 sec and cleared by centrifugation at 14,000 rpm for 10 min at 4° C. Cleared lysates were boiled in sample buffer and loaded onto 10% SDS-PAGE gel. For immunoblotting analysis, proteins were transferred onto Immobilon PVDF membrane (Millipore; Bedford, Mass.) and visualized with Western Lightning Plus chemiluminescence kit (Perkin Elmer; Boston, Mass.).

[12] = tested on: ERK1/2, AKT, STAT3, and FAK in Amp+ cells; assay: as above; format: cell-based, human; conditions: 3 h, 50 nM
Description: as §7, §3, §8

NCI-H1650 = assay: Drug-sensitivity screen of 40 human cancer cell lines (DNA staining, 3 days); format: cell-based; conditions: NCI-H1650 (EGFR del E746-A750), tested 100 nM to 10 μM
Description: as §1, §2

NCI-H1975 = assay: as above; format: cell-based; conditions: NCI-H1975 (EGFR L858R and T790M)
Description: as §1, §2

MET = MET (Homo sapiens, UniProt P08581); conditions: nanomolar concentrations; cited from earlier work
Sequence of MET (P08581 25-1390): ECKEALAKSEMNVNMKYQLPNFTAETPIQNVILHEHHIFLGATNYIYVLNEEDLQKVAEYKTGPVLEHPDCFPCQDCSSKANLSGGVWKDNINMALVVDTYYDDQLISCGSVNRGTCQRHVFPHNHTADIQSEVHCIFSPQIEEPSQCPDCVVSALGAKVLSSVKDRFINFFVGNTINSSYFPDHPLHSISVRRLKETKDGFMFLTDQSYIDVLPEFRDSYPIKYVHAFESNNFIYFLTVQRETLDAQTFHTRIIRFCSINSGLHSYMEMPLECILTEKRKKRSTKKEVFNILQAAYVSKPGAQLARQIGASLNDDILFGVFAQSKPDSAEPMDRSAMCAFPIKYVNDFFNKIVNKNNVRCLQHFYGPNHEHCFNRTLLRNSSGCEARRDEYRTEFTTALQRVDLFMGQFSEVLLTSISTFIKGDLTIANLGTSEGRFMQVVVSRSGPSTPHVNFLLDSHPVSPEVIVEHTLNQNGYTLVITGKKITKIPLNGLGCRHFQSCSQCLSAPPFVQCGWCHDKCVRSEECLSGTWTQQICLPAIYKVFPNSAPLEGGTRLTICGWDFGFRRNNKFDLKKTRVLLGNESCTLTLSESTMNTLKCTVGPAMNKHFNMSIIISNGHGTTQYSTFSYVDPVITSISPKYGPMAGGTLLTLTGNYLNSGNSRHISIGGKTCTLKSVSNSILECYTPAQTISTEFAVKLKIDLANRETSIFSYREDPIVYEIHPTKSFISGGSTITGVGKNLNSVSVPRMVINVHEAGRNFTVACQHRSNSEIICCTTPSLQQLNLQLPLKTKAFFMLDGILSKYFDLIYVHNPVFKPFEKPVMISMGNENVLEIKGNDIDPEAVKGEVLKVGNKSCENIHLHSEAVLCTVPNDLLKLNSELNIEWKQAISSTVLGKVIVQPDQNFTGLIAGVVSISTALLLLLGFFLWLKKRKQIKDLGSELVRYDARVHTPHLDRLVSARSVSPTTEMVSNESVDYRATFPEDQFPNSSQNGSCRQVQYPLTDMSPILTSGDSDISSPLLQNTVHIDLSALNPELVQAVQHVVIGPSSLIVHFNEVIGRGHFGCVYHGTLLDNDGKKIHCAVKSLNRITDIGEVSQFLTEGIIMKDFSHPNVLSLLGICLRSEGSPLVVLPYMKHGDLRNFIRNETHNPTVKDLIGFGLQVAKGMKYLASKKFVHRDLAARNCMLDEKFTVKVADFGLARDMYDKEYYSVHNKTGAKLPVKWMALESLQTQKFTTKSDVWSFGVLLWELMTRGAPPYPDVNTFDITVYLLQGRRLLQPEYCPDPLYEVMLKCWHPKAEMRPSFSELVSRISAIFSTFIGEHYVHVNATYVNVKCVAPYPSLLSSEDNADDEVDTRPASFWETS

MLP-29 cells = conditions: cited from earlier work
[13] = tested on: GTL-16 gastric carcinoma cells; conditions: cited from earlier work
NIH3T3 fibroblasts = conditions: cited from earlier work

Q: What does the source list for `Cc1[nH]c(/C=C2\C(=O)Nc3ccc(S(=O)(=O)Cc4c(Cl)cccc4Cl)cc32)c(C)c1C(=O)N1CCC[C@@H]1CN1CCCC1` [PHA-665752, (3Z)-5-[(2,6-dichlorobenzyl)sulfonyl]-3-[(3,5-dimethyl-4-{[(2R)-2-(pyrrolidin-1-ylmethyl)pyrrolidin-1-yl]carbonyl}-1H-pyrrol-2-yl)methylene]-1,3-dihydro-2H-indol-2-one]?
A: constitutive MET autophosphorylation [1]: effectively suppressed the constitutive MET autophosphorylation; IC50 [2]: > 10 µM; effect on number of viable cells (Amp+ cells [3]): dramatic decrease in the number of viable cells; also recorded: dramatic reduction in cell numbers; Extreme sensitivity (drug concentration) (MKN45 [4]): 100 nM; effect on proliferation as a function of time (Amp+ cells [5]): initial arrest in proliferation, followed by cell death; induction of apoptosis (Amp+ cells [6]): induction of apoptosis; also recorded: demonstrated apoptosis; induction of apoptosis (Amp− cells [7]): not in Amp− cells; viability at 0.5 µM (SNU-16): 99.9 ± 1.5%; viability at 0.5 µM (SNU-5): 4 ± 0.2%; viability at 0.5 µM (N87): 86 ± 7.4%; viability at 0.5 µM (AGS): 99.8 ± 1.9%; viability at 0.5 µM (MKN45 [8]): 5.8 ± 0.5%; viability at 0.5 µM (GTL16): 12.8 ± 1.2%; viability at 0.5 µM (KATO II): 3.2 ± 0.3%; viability at 0.5 µM (Hs746T): 38.4 ± 1.2%; viability at 0.5 µM (KATO III): 105 ± 9.5%; viability at 0.5 µM (HSC39): 92.8 ± 2.1%; viability at 0.5 µM (TMK-1): 91.3 ± 2.1%; viability at 0.5 µM (SNU-1): 101 ± 3.2%; viability at 0.5 µM (MKN1): 87.5 ± 4%; viability at 0.5 µM (MKN28): 104 ± 4.2%; viability at 0.5 µM (MKN74): 89.6 ± 2.6%; viability at 0.5 µM (Hs738T): 100 ± 12.3%; viability at 0.5 µM (MKN7): 118 ± 21.1%; effect on proliferation rate as a function of time (Amp− cells [9]): unaffected; effect on number of viable cells / proliferation (Amp− cells [10]): resistant; also recorded: no effect; baseline phosphorylation of ERK1/2, AKT, STAT3, FAK [11]: no effect on baseline phosphorylation; baseline phosphorylation of downstream effectors ERK1/2, AKT, STAT3, FAK [12]: effectively abrogated the baseline phosphorylation

Q: Which “Extreme sensitivity (drug concentration)” value (NCI-H1650) does the source give for `COc1cc2ncnc(Nc3ccc(F)c(Cl)c3)c2cc1OCCCN1CCOCC1` [gefitinib] here?
A: Its value is 100 nM.

Q: What about the drug sensitivity (NCI-H1975) of the same molecule?
A: The drug sensitivity was “relatively resistant”.

Q: For `COC(=O)[C@@]1(O)C[C@H]2O[C@]1(C)n1c3ccccc3c3c4c(c5c6ccccc6n2c5c31)C(=O)NC4` [K252a], which Met autophosphorylation (MET) is on record?
A: The Met autophosphorylation was “inhibits Met autophosphorylation”.

Q: And the HGF-mediated scattering (MLP-29 cells)?
A: The HGF-mediated scattering was “prevents HGF-mediated scattering”.

Q: What about the Met-driven proliferation [13] of the same molecule?
A: Its Met-driven proliferation is “reduces Met-driven proliferation”.

Q: What about the Met mediated transformation (NIH3T3 fibroblasts) of the same molecule?
A: The Met mediated transformation was “reverses Met mediated transformation”.
